Measured values published in patent publication US6093563A, “Chondroitin lyase enzymes” (IBEX Technologies R and D, Inc., priority 1994, dated 2000).

Key:
[1] = target: Flavobacterium heparinum chondroitinase B (55,000 Dalton, purified, Sequence ID No. 4) (Pedobacter heparinus, UniProt Q46079); settings: 0.1 mM reagent; 20 mM Tris buffer, pH 8.0; 0.5 mg/ml dermatan sulfate as substrate; none = 100
Method: (§1) Chondroitinase activity was determined by a modification of the spectrophotometric assay described by Yang, et al., J. Biol. Chem., 160(30):1849-1857, 1985. Chondroitinases degrade their respective substrates by an eliminative reaction resulting in the formation of 4,5-unsaturated sulfated disaccharides which absorb ultraviolet light at 232 nm. Reaction buffers contained 50 mM Tris, pH 8.0 and 0.5 mg/ml substrate; dermatan sulfate for chondroitinase B activity, chondroitin sulfate A for chondroitinase AC activity. A continuous spectrophotometric assay is carried out by transferring a 10 to 50 μl sample to a quartz cuvette and adding the reaction buffer to make a final volume of one ml. The cuvette is placed in a Beckman DU 640 spectrophotometer, controlled to maintain a constant temperature of 30° C., and the increase in absorbance at 232 nm monitored for three to five minutes. Activities are calculated using the molar extinction coefficient for chondroitin sulfate, 5.1×103 M^-1, and are expressed in international units, IU, where one IU is the amount of enzyme required to catalyze the formation of one μmole unsaturated product per minute.

[2] = target: Flavobacterium heparinum chondroitinase AC (77,000 Dalton, purified, Sequence ID No. 2) (Pedobacter heparinus, UniProt Q59288); settings: 0.1 mM reagent; 20 mM Tris buffer, pH 8.0; 0.5 mg/ml chondroitin sulfate A as substrate; none = 100
Chain of Flavobacterium heparinum chondroitinase AC (77,000 Dalton, purified, Sequence ID No. 2) (Q59288 23-700): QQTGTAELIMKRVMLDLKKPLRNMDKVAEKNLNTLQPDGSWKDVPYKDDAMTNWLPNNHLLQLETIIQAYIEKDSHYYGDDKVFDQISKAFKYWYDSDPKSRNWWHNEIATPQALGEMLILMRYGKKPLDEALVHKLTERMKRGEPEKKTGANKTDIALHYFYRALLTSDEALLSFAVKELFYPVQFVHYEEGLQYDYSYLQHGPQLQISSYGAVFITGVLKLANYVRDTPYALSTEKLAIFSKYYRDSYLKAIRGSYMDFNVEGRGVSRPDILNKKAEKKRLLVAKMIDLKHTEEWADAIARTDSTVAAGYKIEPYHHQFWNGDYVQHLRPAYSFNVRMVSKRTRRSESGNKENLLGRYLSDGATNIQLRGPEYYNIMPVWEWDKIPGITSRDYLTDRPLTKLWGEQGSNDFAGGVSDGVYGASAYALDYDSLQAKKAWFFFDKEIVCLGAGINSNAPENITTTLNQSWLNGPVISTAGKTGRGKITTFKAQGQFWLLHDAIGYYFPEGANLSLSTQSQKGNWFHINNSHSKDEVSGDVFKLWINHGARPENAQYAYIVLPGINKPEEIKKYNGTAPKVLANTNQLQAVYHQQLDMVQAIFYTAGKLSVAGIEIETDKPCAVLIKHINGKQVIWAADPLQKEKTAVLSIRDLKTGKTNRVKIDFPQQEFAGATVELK
Method: as §1

Chain of Flavobacterium heparinum chondroitinase B (55,000 Dalton, purified, Sequence ID No. 4) (Q46079 26-506): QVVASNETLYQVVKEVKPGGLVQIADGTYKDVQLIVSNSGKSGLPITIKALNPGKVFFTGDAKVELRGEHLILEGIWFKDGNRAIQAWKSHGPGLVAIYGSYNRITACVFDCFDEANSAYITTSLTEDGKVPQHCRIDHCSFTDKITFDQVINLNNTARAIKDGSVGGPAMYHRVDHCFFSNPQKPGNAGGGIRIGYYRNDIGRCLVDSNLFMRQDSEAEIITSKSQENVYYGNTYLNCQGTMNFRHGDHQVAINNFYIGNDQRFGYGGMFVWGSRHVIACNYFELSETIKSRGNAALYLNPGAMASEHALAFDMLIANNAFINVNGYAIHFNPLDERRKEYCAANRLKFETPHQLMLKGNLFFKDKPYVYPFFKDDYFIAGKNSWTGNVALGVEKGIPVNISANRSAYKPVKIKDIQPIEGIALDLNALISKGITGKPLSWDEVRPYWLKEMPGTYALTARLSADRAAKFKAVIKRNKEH

O=C(O)CN(CCN(CC(=O)O)CC(=O)O)CC(=O)O [EDTA]
chondroitinase B relative activity (%) [1]: 1%
chondroitinase AC relative activity (%) [2]: 97%
